# Like-named read-outs stand apart in the source and are kept apart here.
# Key:
# [1] = test system: S. aureus; assay: mouse systemic infection model (PD50); type: in vivo
# [2] = test system: S. pyogenes; type: cell-based
# [3] = test system: S. pyogenes ATCC 8668; assay: mouse subcutaneous abscess model; type: in vivo; conditions: 48 hr. post infection
# Protocol: Example. Mouse Subcutaneous Abscess. Bacteria were prepared from an overnight plate culture by re-suspending in saline and adjusting the suspension to a 0.1 OD at 625 nm of a 1:10 dilution. The adjusted bacterial suspension was mixed 1:2 with cyclodextran beads prepared as per package instructions. The right flanks of the mice were shaven and injected subcutaneously with 0.2 ml of the bacterial inoculum. Two hours post infection mice were treated via oral gavage with either test article or control drug. 48 hours post infection, mice were euthanized, abscesses aseptically removed, homogenized, serially diluted and plated on bacterial growth agar. After overnight incubation, colonies were counted and CFUs/gram of abscess were determined.
# Example. Mouse Subcutaneous Abscess˜S. pyogenes ATCC 8668 (Average Log10 CFU/gram of Abscess). Abscess processing 48 hours post infection.
# [4] = test system: M. catarrhalis; assay: microbe, parasite or virus in culture; type: cell-based; conditions: Moraxella catarrhalis
# [5] = test system: S. pneumoniae; type: cell-based; conditions: for Mutant selection frequencies: S. pneumoniae
# [6] = test system: M. fermentans; type: cell-based; conditions: M. fermentans (15 isolates)
# [7] = test system: S. pneumoniae; assay: neutropenic mouse thigh infection; type: in vivo; conditions: QD, PO
# [8] = test system: S. pyogenes 3029; assay: Intraperitoneal (IP) mouse infection model (ED50); type: in vivo; conditions: Streptococcus pyogenes, MAC-R S. pyogenes 3029
# [9] = test system: S. pneumoniae; assay: microbe, parasite or virus in culture; type: cell-based; conditions: for MIC: Streptococcus pneumoniae
smiles,measurement,setting,value
"CC[C@H]1OC(=O)[C@H](C)C(=O)[C@H](C)[C@@H](O[C@@H]2O[C@H](C)C[C@H](N(C)C)[C@H]2O)[C@](C)(OC)C[C@@H](C)C(=O)[C@H](C)[C@H]2N(CCCCn3cnc(-c4cccnc4)c3)C(=O)O[C@]12C [TEL, telithromycin]",PD50,[1]; MRSA 300 (CA),9.2 mg/kg
same,PD50,"[1]; S. aureus, single oral dose 1 hr post infection",>30 mg/kg
same,Mutant selection frequencies,"[2]; S. pyogenes, at 2×MIC",<8.3×10^−11-7.7×10^−8
same,single step mutation frequency,"[2]; strain 237 Macrolide-R [L4 mutation], 2 × MIC",<2.0 × 10^−10
same,single step mutation frequency,"[2]; strain 237 Macrolide-R [L4 mutation], 4 × MIC",<2.0 × 10^−10
same,single step mutation frequency,"[2]; strain 237 Macrolide-R [L4 mutation], 8 × MIC",<2.0 × 10^−10
same,single step mutation frequency,"[2]; strain 2011 Macrolide-R [mef(A)], 2 × MIC",3.8 × 10^−8
same,single step mutation frequency,"[2]; strain 2011 Macrolide-R [mef(A)], 4 × MIC",<6.3 × 10^−10
same,single step mutation frequency,"[2]; strain 2011 Macrolide-R [mef(A)], 8 × MIC",<6.3 × 10^−10
same,single step mutation frequency,"[2]; strain 2094 Macrolide-R [erm(A)], 2 × MIC",7.7 × 10^−8
same,single step mutation frequency,"[2]; strain 2094 Macrolide-R [erm(A)], 4 × MIC",<1.5 × 10^−10
same,single step mutation frequency,"[2]; strain 2094 Macrolide-R [erm(A)], 8 × MIC",<1.5 × 10^−10
same,single step mutation frequency,"[2]; strain 2132 Macrolide-S, 2 × MIC",<8.3 × 10^−11
same,single step mutation frequency,"[2]; strain 2132 Macrolide-S, 4 × MIC",<8.3 × 10^−11
same,single step mutation frequency,"[2]; strain 2132 Macrolide-S, 8 × MIC",<8.3 × 10^−11
same,Average Log10 CFU/gram of Abscess,[3]; 10 mg/Kg,7.06 Log10 CFU/gram
same,Average Log10 CFU/gram of Abscess,[3]; 20 mg/Kg,6.10 Log10 CFU/gram
same,MIC50,[4],0.12 µg/mL
same,MIC90,[4],0.25 µg/mL
same,Mutant selection frequencies,[5]; at 2×MIC,1.1×10^−9-1.3×10^−4
same,Mutant selection frequencies,[5]; at 8×MIC,<1.5×10^−10-4.8×10^−6
same,single step mutation frequency,"[5]; strain 24 Macrolide-R [erm(B)], 2 × MIC",1.3 × 10^−4
same,single step mutation frequency,"[5]; strain 24 Macrolide-R [erm(B)], 4 × MIC",2.5 × 10^−6
same,single step mutation frequency,"[5]; strain 24 Macrolide-R [erm(B)], 8 × MIC",1.7 × 10^−6
same,single step mutation frequency,"[5]; strain 1076 Macrolide-R [erm(B)&mef(A)], 2 × MIC",6.5 × 10^−6
same,single step mutation frequency,"[5]; strain 1076 Macrolide-R [erm(B)&mef(A)], 4 × MIC",9.7 × 10^−6
same,single step mutation frequency,"[5]; strain 1076 Macrolide-R [erm(B)&mef(A)], 8 × MIC",4.8 × 10^−6
same,single step mutation frequency,"[5]; strain 1077 Macrolide-S, 2 × MIC",1.1 × 10^−9
same,single step mutation frequency,"[5]; strain 1077 Macrolide-S, 4 × MIC",<5.5 × 10^−10
same,single step mutation frequency,"[5]; strain 1077 Macrolide-S, 8 × MIC",<5.5 × 10^−10
same,single step mutation frequency,"[5]; strain 1635 Macrolide-R [erm(A)], 2 × MIC",<2.7 × 10^−9
same,single step mutation frequency,"[5]; strain 1635 Macrolide-R [erm(A)], 4 × MIC",<2.7 × 10^−9
same,single step mutation frequency,"[5]; strain 1635 Macrolide-R [erm(A)], 8 × MIC",<2.7 × 10^−9
same,single step mutation frequency,"[5]; strain 2686 Macrolide-R [L4 mutation], 2 × MIC",2.2 × 10^−5
same,single step mutation frequency,"[5]; strain 2686 Macrolide-R [L4 mutation], 4 × MIC",2.2 × 10^−9
same,single step mutation frequency,"[5]; strain 2686 Macrolide-R [L4 mutation], 8 × MIC",<1.1 × 10^−9
same,single step mutation frequency,"[5]; strain 3009 Macrolide-R [23S rRNA mutation], 2 × MIC",3.8 × 10^−7
same,single step mutation frequency,"[5]; strain 3009 Macrolide-R [23S rRNA mutation], 4 × MIC",<1.5 × 10^−10
same,single step mutation frequency,"[5]; strain 3009 Macrolide-R [23S rRNA mutation], 8 × MIC",<1.5 × 10^−10
same,single step mutation frequency,"[5]; strain 3665 Macrolide-R [mef(A)], 2 × MIC",7.5 × 10^−9
same,single step mutation frequency,"[5]; strain 3665 Macrolide-R [mef(A)], 4 × MIC",2.5 × 10^−9
same,single step mutation frequency,"[5]; strain 3665 Macrolide-R [mef(A)], 8 × MIC",<2.5 × 10^−10
same,single step mutation frequency,"[5]; strain 7127 Macrolide-S [S20N in L4, A105V in L22], 2 × MIC",<5.0 × 10^−9
same,single step mutation frequency,"[5]; strain 7127 Macrolide-S [S20N in L4, A105V in L22], 4 × MIC",<5.0 × 10^−9
same,single step mutation frequency,"[5]; strain 7127 Macrolide-S [S20N in L4, A105V in L22], 8 × MIC",<5.0 × 10^−9
same,MIC Range,[6],0.002 to 0.031 µg/mL
same,MIC50,[6]; Mycoplasmopsis fermentans,≤ 0.008 µg/mL
same,MIC90,[6]; Mycoplasmopsis fermentans,0.016 µg/mL
same,Dose for 1 log10 Reduction from 24 hour controls,[7]; S. pneumoniae 1629,11.0 mg/Kg
same,Dose for 3 log10 Reduction from 24 hour controls,[7]; S. pneumoniae 1629,15.5 mg/Kg
same,Dose for 1 log10 Reduction from 24 hour controls,[7]; S. pneumoniae 6303,4.75 mg/Kg
same,Dose for 2 log10 Reduction from 24 hour controls,[7]; S. pneumoniae 6303,6.5 mg/Kg
same,Dose for 3 log10 Reduction from 24 hour controls,[7]; S. pneumoniae 6303,8.75 mg/Kg
same,ED50,[8],> 150 mg/kg
same,strains with resistant clones / strains tested,[9]; S. pneumoniae,5/8
same,MIC,"[9]; read-out: Initial MIC, strain 24 Macrolide-R [erm(B)], parent",0.25 µg/mL
same,MIC,"[9]; read-out: Initial MIC, strain 1076 Macrolide-R [erm(B)&mef(A)], parent",0.5 µg/mL
same,MIC,"[9]; read-out: Initial MIC, strain 1077 Macrolide-S, parent",0.004 µg/mL
same,MIC,"[9]; read-out: Initial MIC, strain 1635 Macrolide-R [erm(A)], parent",0.004 µg/mL
same,MIC,"[9]; read-out: Initial MIC, strain 2686 Macrolide-R [L4 mutation], parent",0.06 µg/mL
same,MIC,"[9]; read-out: Initial MIC, strain 3009 Macrolide-R [23SrRNA mutation], parent",0.016 µg/mL
